Experimental data published in the NIST ThermoML archive (doi:10.1021/acs.jced.8b00590).
Numbers after ± are expanded uncertainties.

Conditions: Liquid; for mass density / viscosity: 101.3 kPa; for mass density: Vibrating tube method; for viscosity: Falling or rolling sphere viscometry; for vapor or sublimation pressure: Ebulliometric method (Recirculating still)

CCCCC#N [pentanenitrile]
mass density (283.15 K): 807.7 ± 2.4 kg/m3
viscosity (293.15 K): 0.7191 ± 0.009 mPa·s
mass density (293.15 K): 799.1 ± 2.4 kg/m3
mass density (303.15 K): 790.4 ± 2.4 kg/m3
viscosity (313.15 K): 0.5654 ± 0.0071 mPa·s
mass density (313.15 K): 781.7 ± 2.4 kg/m3
mass density (323.15 K): 772.9 ± 2.3 kg/m3
vapor or sublimation pressure (329.35 K): 5 ± 0.2 kPa
viscosity (333.15 K): 0.4567 ± 0.0057 mPa·s
mass density (333.15 K): 764.2 ± 2.3 kg/m3
vapor or sublimation pressure (344.89 K): 9.9 ± 0.4 kPa
vapor or sublimation pressure (345.13 K): 10 ± 0.4 kPa
vapor or sublimation pressure (362.77 K): 20 ± 0.4 kPa
vapor or sublimation pressure (374.08 K): 30 ± 0.6 kPa
vapor or sublimation pressure (386.22 K): 45 ± 0.9 kPa
vapor or sublimation pressure (395.4 K): 60 ± 1.3 kPa
vapor or sublimation pressure (407.76 K): 86.4 ± 1.8 kPa
vapor or sublimation pressure (411.12 K): 95 ± 2 kPa
vapor or sublimation pressure (412.96 K): 100 ± 2.1 kPa

Clc1ccccc1Cl [1,2-dichlorobenzene]
vapor or sublimation pressure (360.41 K): 4.86 ± 0.2 kPa
vapor or sublimation pressure (377.35 K): 9.95 ± 0.4 kPa
vapor or sublimation pressure (388.41 K): 14.98 ± 0.61 kPa
vapor or sublimation pressure (396.96 K): 20.04 ± 0.42 kPa
vapor or sublimation pressure (403.4 K): 24.99 ± 0.53 kPa
vapor or sublimation pressure (408.91 K): 30 ± 0.63 kPa
vapor or sublimation pressure (414.16 K): 35.02 ± 0.73 kPa
vapor or sublimation pressure (418.75 K): 40.02 ± 0.83 kPa
vapor or sublimation pressure (422.87 K): 45.05 ± 0.94 kPa
vapor or sublimation pressure (429.99 K): 55.03 ± 1.1 kPa
vapor or sublimation pressure (433.29 K): 59.97 ± 1.2 kPa
vapor or sublimation pressure (438.87 K): 69.93 ± 1.4 kPa
vapor or sublimation pressure (443.92 K): 79.98 ± 1.6 kPa
vapor or sublimation pressure (448.94 K): 90.2 ± 1.9 kPa
vapor or sublimation pressure (451.11 K): 95.11 ± 2 kPa
vapor or sublimation pressure (452.62 K): 98.36 ± 2 kPa
